Data from ChEMBL document CHEMBL4507276 (2021).

How the values were obtained:
[1] = biological target: Tyrosine-protein kinase Yes (Homo sapiens) (UniProt P07947); assay: YES1 Invitrogen selectivity data (BI); conditions: Compound concentration 3.0 uM
[2] = tested on: Epidermal growth factor receptor (Homo sapiens), P00533 [L861Q]; assay: EGFR L861Q Invitrogen selectivity data (BI); conditions: Compound concentration 3.0 uM
[3] = biological target: 5-hydroxytryptamine receptor 1D (Homo sapiens) (UniProt P28221); assay: 5HT1D/H AG Cerep selectivity data (BI); conditions: filed as agonist, Compound concentration 20.0 uM
Sequence of 5-hydroxytryptamine receptor 1D (Homo sapiens) (P28221 whole entry): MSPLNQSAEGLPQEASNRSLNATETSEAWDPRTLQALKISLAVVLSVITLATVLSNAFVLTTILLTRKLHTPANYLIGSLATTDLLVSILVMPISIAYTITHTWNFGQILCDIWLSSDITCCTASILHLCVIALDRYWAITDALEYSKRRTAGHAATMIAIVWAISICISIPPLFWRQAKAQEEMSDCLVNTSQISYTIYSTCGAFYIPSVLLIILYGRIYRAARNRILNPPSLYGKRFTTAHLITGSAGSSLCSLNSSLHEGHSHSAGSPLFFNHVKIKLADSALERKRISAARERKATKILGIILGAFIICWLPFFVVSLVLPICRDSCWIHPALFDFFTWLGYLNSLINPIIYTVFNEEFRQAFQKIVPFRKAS

[4] = biological target: Glutamate receptor ionotropic, NMDA 1 (Rattus norvegicus) (UniProt P35439); assay: NMDAGLSI/RA Eurofins-Panlabs selectivity data (BI); conditions: Compound concentration 10.0 uM
[5] = biological target: Serine/threonine-protein kinase PAK 4 (Homo sapiens) (UniProt O96013); assay: PAK4 Invitrogen selectivity data (BI); conditions: Compound concentration 3.0 uM
[6] = biological target: Arachidonate 5-lipoxygenase-activating protein (Homo sapiens, UniProt P20292); assay: Functional inhibition in mouse whole blood; assay type: tissue-based; conditions: target entry is the homologue from another species
Sequence of Arachidonate 5-lipoxygenase-activating protein (P20292 whole entry): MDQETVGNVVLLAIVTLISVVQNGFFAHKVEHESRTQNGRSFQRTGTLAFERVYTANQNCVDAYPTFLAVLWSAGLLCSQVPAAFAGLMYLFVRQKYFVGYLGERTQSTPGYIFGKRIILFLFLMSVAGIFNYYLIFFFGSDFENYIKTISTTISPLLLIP

[7] = biological target: T1, cAMP-dependent protein kinase catalytic subunit PRKX (Homo sapiens) (UniProt P51817); assay: PRKX Invitrogen selectivity data (BI); conditions: Compound concentration 3.0 uM
T1 sequence (whole entry): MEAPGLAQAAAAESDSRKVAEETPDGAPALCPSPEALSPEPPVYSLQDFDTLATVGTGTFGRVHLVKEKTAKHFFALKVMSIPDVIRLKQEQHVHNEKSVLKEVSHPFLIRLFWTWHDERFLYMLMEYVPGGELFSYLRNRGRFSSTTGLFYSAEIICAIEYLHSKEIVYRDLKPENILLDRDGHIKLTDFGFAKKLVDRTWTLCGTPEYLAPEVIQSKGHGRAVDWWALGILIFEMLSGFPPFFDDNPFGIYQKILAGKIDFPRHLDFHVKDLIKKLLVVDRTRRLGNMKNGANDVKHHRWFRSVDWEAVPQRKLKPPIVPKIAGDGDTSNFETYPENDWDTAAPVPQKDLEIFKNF

[8] = biological target: Gamma-aminobutyric acid receptor subunit alpha-1 (Homo sapiens) (UniProt P14867); assay: GABAA1(H) Cerep selectivity data (BI); conditions: filed as agonist, Compound concentration 20.0 uM
Sequence of Gamma-aminobutyric acid receptor subunit alpha-1 (Homo sapiens) (P14867 whole entry): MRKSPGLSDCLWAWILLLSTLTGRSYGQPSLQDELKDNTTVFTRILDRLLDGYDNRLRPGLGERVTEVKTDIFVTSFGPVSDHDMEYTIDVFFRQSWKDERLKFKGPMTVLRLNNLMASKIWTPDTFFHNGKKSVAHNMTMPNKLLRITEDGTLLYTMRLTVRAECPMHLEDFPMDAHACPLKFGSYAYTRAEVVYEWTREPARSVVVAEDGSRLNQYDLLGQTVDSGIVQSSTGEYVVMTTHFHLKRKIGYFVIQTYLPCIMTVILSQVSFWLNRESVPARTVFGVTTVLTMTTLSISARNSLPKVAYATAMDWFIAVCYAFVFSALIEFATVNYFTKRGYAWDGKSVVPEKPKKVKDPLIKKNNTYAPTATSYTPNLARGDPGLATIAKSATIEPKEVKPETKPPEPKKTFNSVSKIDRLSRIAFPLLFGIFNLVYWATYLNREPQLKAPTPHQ

[9] = biological target: Dual specificity mitogen-activated protein kinase kinase 1 (Homo sapiens) (UniProt Q02750); assay: MAP2K1 Invitrogen selectivity data (BI); conditions: Compound concentration 3.0 uM
Sequence of Dual specificity mitogen-activated protein kinase kinase 1 (Homo sapiens) (Q02750 whole entry): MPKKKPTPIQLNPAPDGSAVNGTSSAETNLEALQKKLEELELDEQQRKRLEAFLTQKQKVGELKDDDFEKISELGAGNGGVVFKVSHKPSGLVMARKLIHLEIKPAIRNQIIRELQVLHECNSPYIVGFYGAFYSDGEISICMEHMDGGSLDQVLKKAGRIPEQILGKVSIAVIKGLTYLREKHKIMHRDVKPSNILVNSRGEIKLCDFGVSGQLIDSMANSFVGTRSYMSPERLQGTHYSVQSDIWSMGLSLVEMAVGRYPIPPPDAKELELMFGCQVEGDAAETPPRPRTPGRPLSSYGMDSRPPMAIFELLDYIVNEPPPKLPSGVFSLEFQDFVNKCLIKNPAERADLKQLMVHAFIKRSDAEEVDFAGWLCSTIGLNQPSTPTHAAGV

[10] = biological target: Voltage-dependent N-type calcium channel subunit alpha-1B (Rattus norvegicus) (UniProt Q02294); assay: CA+/N/R Cerep selectivity data (BI); conditions: Compound concentration 20.0 uM
Sequence of Voltage-dependent N-type calcium channel subunit alpha-1B (Rattus norvegicus) (Q02294 whole entry, looked up): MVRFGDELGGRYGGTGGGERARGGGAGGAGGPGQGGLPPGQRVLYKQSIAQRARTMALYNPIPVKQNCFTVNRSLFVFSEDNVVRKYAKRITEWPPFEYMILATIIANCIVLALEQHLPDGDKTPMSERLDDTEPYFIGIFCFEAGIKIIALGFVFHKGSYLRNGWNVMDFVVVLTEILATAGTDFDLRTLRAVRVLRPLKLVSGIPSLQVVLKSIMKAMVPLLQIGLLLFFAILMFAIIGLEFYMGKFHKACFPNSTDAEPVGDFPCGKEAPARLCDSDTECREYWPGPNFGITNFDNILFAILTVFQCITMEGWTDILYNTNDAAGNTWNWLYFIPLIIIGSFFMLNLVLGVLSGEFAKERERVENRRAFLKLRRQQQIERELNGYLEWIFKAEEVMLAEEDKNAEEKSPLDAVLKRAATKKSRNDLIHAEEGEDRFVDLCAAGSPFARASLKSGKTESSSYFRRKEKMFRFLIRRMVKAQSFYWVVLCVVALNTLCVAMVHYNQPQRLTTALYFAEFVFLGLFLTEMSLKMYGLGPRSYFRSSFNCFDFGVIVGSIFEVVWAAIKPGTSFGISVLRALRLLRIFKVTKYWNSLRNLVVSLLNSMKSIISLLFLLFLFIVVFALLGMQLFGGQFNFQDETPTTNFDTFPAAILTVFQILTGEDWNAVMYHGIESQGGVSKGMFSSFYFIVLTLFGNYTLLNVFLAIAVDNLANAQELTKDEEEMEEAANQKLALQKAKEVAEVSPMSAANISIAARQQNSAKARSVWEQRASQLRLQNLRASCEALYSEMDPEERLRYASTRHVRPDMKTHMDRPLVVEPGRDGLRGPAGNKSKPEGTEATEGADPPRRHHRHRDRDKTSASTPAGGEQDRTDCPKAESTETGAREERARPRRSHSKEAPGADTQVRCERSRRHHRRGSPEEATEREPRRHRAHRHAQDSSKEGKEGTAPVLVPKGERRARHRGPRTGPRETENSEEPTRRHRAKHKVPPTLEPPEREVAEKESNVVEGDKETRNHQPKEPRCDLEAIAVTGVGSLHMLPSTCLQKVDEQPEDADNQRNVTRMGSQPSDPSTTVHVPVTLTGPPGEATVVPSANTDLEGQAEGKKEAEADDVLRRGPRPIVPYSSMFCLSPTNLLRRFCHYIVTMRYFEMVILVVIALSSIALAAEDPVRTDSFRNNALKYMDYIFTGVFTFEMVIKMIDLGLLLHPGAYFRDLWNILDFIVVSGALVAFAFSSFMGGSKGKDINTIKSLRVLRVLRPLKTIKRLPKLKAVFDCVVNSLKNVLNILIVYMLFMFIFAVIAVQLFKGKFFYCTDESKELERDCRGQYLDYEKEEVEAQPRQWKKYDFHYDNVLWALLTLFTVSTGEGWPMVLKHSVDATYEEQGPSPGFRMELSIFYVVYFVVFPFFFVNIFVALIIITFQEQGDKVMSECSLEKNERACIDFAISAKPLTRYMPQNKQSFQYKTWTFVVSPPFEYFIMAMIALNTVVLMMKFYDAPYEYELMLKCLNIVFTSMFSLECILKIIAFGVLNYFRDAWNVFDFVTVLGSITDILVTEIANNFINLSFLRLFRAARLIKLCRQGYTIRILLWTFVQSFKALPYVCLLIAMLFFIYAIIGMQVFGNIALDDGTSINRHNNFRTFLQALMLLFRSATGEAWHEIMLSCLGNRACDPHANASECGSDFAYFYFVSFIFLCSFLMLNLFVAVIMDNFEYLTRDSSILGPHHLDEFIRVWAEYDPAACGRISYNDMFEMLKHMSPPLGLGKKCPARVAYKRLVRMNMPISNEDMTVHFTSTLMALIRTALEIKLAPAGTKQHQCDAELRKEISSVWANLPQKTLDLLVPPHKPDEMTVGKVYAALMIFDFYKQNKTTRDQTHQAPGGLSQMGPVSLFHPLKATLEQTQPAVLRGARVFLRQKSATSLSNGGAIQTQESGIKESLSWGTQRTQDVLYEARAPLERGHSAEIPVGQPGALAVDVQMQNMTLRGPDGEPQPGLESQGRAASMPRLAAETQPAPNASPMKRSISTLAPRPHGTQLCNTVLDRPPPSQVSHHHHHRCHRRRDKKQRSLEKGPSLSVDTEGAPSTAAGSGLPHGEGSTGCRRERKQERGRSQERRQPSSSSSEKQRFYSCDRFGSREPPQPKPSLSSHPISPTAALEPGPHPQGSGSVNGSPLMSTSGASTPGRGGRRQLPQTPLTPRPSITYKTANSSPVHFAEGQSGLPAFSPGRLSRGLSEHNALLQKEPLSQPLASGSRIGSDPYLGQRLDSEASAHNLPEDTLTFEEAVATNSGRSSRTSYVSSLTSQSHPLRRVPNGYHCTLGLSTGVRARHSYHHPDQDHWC

[11] = biological target: T2, Serine/threonine-protein kinase BRSK1 (Homo sapiens) (UniProt Q8TDC3); assay: BRSK1 Invitrogen selectivity data (BI); conditions: Compound concentration 3.0 uM
T2 sequence (whole entry): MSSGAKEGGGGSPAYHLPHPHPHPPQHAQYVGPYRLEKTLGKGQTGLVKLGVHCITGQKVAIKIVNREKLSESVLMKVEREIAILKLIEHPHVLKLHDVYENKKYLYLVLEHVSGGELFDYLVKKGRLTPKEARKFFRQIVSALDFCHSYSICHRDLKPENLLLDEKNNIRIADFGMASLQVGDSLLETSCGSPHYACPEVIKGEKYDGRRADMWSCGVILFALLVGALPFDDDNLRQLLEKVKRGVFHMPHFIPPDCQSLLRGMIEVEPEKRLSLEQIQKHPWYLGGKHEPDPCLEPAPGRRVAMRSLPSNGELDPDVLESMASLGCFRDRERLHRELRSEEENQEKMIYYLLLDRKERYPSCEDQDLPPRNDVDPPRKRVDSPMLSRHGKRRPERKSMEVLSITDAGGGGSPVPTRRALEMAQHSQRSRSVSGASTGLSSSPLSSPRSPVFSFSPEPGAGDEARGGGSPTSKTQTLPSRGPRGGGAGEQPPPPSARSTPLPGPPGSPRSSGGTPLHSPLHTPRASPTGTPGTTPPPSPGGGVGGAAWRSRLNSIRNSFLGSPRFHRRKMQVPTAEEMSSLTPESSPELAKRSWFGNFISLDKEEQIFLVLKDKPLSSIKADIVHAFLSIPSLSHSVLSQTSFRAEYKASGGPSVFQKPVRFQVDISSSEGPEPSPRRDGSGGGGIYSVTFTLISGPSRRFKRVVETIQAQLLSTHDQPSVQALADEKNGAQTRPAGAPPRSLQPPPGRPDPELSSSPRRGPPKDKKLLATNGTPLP

[12] = biological target: Sodium- and chloride-dependent GABA transporter 1 (Rattus norvegicus) (UniProt P23978); assay: GABATRANS/R Cerep selectivity data (BI); conditions: Compound concentration 20.0 uM
[13] = biological target: T3, 5-hydroxytryptamine receptor 1A (Homo sapiens) (UniProt P08908); assay: 5HT1A/H Cerep selectivity data (BI); conditions: Compound concentration 20.0 uM
T3 sequence (whole entry): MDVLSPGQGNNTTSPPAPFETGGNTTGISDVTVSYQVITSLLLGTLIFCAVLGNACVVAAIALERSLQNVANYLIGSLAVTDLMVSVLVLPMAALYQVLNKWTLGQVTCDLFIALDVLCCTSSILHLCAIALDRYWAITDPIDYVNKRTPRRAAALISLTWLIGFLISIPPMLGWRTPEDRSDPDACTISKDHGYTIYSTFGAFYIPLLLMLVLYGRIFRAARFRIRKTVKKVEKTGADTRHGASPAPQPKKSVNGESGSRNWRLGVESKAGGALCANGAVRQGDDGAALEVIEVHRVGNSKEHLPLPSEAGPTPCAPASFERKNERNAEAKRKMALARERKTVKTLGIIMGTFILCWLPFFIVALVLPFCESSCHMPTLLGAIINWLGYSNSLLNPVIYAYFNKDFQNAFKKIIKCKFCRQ

[14] = biological target: T4, Serine/threonine-protein kinase Chk1 (Homo sapiens) (UniProt O14757); assay: CHEK1 Invitrogen selectivity data (BI); conditions: Compound concentration 3.0 uM
T4 sequence (whole entry): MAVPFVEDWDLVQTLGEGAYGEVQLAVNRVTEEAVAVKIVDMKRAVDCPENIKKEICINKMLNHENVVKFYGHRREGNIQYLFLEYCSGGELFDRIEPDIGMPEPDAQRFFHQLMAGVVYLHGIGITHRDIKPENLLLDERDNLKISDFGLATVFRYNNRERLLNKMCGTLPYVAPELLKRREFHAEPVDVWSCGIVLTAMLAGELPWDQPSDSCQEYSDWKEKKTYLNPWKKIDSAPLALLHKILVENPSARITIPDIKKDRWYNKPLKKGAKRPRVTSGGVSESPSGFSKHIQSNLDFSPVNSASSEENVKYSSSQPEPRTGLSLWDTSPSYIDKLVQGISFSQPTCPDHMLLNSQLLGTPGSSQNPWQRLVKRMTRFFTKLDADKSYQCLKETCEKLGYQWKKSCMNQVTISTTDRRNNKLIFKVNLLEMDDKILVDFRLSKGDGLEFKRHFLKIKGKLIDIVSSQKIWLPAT

[15] = tested on: Epidermal growth factor receptor (Homo sapiens), P00533 [L858R]; assay: EGFR L858R Invitrogen selectivity data (BI); conditions: Compound concentration 3.0 uM
[16] = biological target: Mitogen-activated protein kinase kinase kinase 20 (Homo sapiens) (UniProt Q9NYL2); assay: ZAK Invitrogen selectivity data (BI); conditions: Compound concentration 3.0 uM

Sequence of Tyrosine-protein kinase Yes (Homo sapiens) (P07947 2-543 limits assumed): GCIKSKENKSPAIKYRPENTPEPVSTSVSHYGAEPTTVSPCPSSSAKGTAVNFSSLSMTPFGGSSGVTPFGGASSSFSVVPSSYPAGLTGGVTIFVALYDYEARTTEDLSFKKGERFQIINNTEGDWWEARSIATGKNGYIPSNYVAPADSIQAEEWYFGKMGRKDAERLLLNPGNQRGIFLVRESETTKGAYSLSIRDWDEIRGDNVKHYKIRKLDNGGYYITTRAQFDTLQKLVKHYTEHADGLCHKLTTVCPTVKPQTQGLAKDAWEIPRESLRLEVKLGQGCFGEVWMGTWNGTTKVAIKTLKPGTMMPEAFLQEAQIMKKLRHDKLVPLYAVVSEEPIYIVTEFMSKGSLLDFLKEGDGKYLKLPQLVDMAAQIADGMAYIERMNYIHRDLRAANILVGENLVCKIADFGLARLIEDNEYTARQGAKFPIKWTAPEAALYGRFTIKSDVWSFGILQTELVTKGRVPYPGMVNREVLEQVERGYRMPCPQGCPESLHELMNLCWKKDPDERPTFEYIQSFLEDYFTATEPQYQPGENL

With CN(C)C(=O)Cn1cc(-c2nc([C@@](C)(c3ccc(-c4cnc(N)nc4)cc3)C3CC3)no2)cn1 [BI 665915] the residual activity [1] was 88.5%, the residual activity [2] was 98% and the residual activity [3] was 102%. For the same compound, the residual activity [4] was 90%, the residual activity [5] was 93.5% and the IC50 [6] was 4.8 µM. It also gave a residual activity [7] of 102%, a residual activity [8] of 105% and a residual activity [9] of 98%. It also gave a residual activity [10] of 96%, a residual activity [11] of 90.5% and a residual activity [12] of 96%. For the same compound, the residual activity [13] was 77%, the residual activity [14] was 96% and the residual activity [15] was 96%. It also gave a residual activity [16] of 97%.
